From ChEMBL document CHEMBL4334443, “Characterization of Covalent Pyrazolopyrimidine-MKK7 Complexes and a Report on a Unique DFG-in/Leu-in Conformation of Mitogen-Activated Protein Kinase Kinase 7 (MKK7)” (J Med Chem, 2019)

Test: Inhibition of MKK7 beta1 S273D/T275D double mutant (unknown origin) using JNK1 K55M mutant as substrate by ADP-Glo assay
Design: species or system Homo sapiens

Row | Structure (SMILES) | IC50 [nM]
1 | C=CC(=O)N1CCC[C@@H](n2nc(-c3cn(C)c4ccccc34)c3c(N)ncnc32)C1 | 302
2 | CCC(=O)N1CCC[C@@H](n2nc(-c3ccc(F)cc3)c3c(N)ncnc32)C1 | > 10000
3 | N#C/C(=C\C1CC1)C(=O)N1CCC[C@@H](n2nc(-c3cccc(C(F)(F)F)c3)c3c(N)ncnc32)C1 | > 10000
4 | C=CC(=O)N1CCC[C@@H](n2nc(-c3ccc(C(F)(F)F)cc3)c3c(N)ncnc32)C1 | 666
5 | C=CC(=O)N1CCC[C@@H](n2nc(C#CC3CCCC3)c3c(N)ncnc32)C1 | 1570
6 | C=CC(=O)N1CCC[C@@H](n2nc(-c3ccc(F)cc3)c3c(N)ncnc32)C1 | 154
7 | C=CC(=O)N1CCC[C@@H](n2nc(C3CC3)c3c(N)ncnc32)C1 | 307
8 | C=CC(=O)N1CCC[C@@H](n2nc(-c3cccc4ccccc34)c3c(N)ncnc32)C1 | 149
9 | C=CC(=O)N1CCC[C@@H](n2nc(-c3ccc4ccccc4c3)c3c(N)ncnc32)C1 | 113
10 | C=CC(=O)N1CCC[C@@H](n2nc(-c3cccc(C(F)(F)F)c3)c3c(N)ncnc32)C1 | 159
11 | CCC(=O)N1CCC[C@@H](n2nc(-c3cccc(C(F)(F)F)c3)c3c(N)ncnc32)C1 | > 10000
12 | CN(C)C/C=C/C(=O)N1CCC[C@@H](n2nc(-c3cccc(C(F)(F)F)c3)c3c(N)ncnc32)C1 | 2610
13 | C=CC(=O)N1CCC[C@@H](n2nc(-c3ccc(Oc4ccccc4)cc3)c3c(N)ncnc32)C1 [IBRUTINIB] | 78
14 | CCC(=O)N1CCC[C@@H](n2nc(-c3ccccc3)c3c(N)ncnc32)C1 | > 10000
15 | C=CC(=O)N1CCC[C@@H](n2nc(-c3ccc(O)cc3)c3c(N)ncnc32)C1 | 8.6
16 | C=CC(=O)N1CCC[C@@H](n2nc(-c3ccccc3)c3c(N)ncnc32)C1 | 413
17 | C=CC(=O)N1CCC[C@@H](n2nc(-c3cnc4[nH]ccc4c3)c3c(N)ncnc32)C1 | 19
18 | C=CC(=O)N1CCC[C@@H](n2ncc3c(N)ncnc32)C1 | 631
19 | N#C/C(=C\C1CC1)C(=O)N1CCC[C@@H](n2nc(-c3cnc4[nH]ccc4c3)c3c(N)ncnc32)C1 | > 10000
